Measured values reported in the METLIN SMRT retention time set (Domingo-Almenara et al. 2019).

Experiment: gradient 5% acetonitrile 3 min, to 50% in 2 min, to 85% in 15 min, held 3 min, 100 µL/min
Settings: column: Zorbax Extend-C18 2.1 x 50 mm; eluents: water / acetonitrile, 0.1% formic acid
How it was run: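 Using water and acetonitrile that each contained 0.1% formic acid, mixtures of ~100 pure standards were separated at 100 μL/min on a Zorbax Extend-C18 column (2.1 × 50 mm, 1.8 μm). The HPLC fed a quadrupole time-of-flight mass spectrometer working in positive and negative ionization mode, with dead and dwell volumes of 40 μL and 900 μL. Data were acquired over 3 months. Retention time was read from computationally picked adduct peaks after manual inspection of each.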

| RP-LC retention time | SMILES |
| --- | --- |
| 879 s | COC(=O)c1c(NCc2ccccc2C(F)(F)F)c2cccc(Cl)c2[nH]c1=O |
| 850 s | O=C(CCCS(=O)(=O)c1ccc(F)cc1)Nc1cccc(Cl)c1Cl |
| 752 s | O=C(Nc1ccccc1)C1CCN(C(=O)c2ncn3c2COC(c2ccccc2)C3)CC1 (configuration not stated) |
| 990 s | CCN(CC)C(=O)c1cnc2snc(C)c2c1N1CCC(C(=O)Nc2ccc(Br)cc2)CC1 |
| 623 s | O=C(c1ccc(Cl)s1)N1CCCn2nc(-c3ccncc3)cc2C1 |
| 1350 s | CCCN(C(=O)c1cccc(OC)c1)c1nc(-c2ccccc2)cs1 |
| 677 s | CC(NC(=O)Cn1c(=O)c(=O)n(C)c2ncccc21)c1ccccc1 (configuration not stated) |
| 591 s | Cc1cccnc1NC(=O)C1CCN(S(=O)(=O)c2cn(C(C)C)cn2)CC1 |
| 588 s | O=C(NCc1cccc(Oc2ccc(F)cc2)c1)c1cccnc1 |
| 986 s | Cc1ccccc1-c1noc(Cn2nc(-c3ccccc3F)ccc2=O)n1 |
| 885 s | Cc1c(-c2ccnc(N3CCOCC3)n2)cnc2nc(-c3ccccc3)nn12 |
| 641 s | CCCCNC(=O)CCC1CCCN(c2cc(NCC)ncn2)C1 (configuration not stated) |
| 573 s | COc1ccc(NC(=O)N2CCC(N3C[C@H]4C[C@H](C3)[C@H]3CCCC(=O)N3C4)CC2)cc1 |
| 973 s | CCCc1noc(-c2ccnc(-n3cnc(C(=O)NC4CCCCC4)c3)c2)n1 |
| 681 s | CCNC(=O)C1CCCN(c2nc3ncn(CC(=O)Nc4ccc(F)cc4Cl)c(=O)c3s2)C1 (configuration not stated) |
| 968 s | COc1ccc(OC)c(Nc2c(-c3ccc(Cl)cc3)nc3cnccn23)c1 |
| 823 s | COc1ccc(OC)c(S(=O)(=O)N2CCOc3ccc(NC(=O)C4CC4)cc3C2)c1 |
| 767 s | Cc1cccc(CNC(=O)C2(C)Cn3cnc(C(=O)NC4CCCC4)c3C(=O)N2C2CC2)c1 (configuration not stated) |
| 961 s | COc1ccc(-n2ncc3c(=O)n(Cc4nc(-c5ccccc5)no4)cnc32)cc1 |
| 746 s | CNC(=O)c1cnn(-c2ccc(-c3nc(C4CC4)no3)cn2)c1C |
| 1110 s | Cc1cccc(Oc2nccnc2N2CCC(C(=O)NC3CCCCCC3)CC2)c1 |
| 794 s | O=C(NCc1ccccc1F)c1ccc2c(c1)Sc1ncccc1C(=O)N2C1CC1 |

| RP-LC retention time | SMILES |
| --- | --- |
| 921 s | Cc1sc(NC(=O)C2CCCCC2)nc1-c1ccc2c(c1)NC(=O)CO2 |
| 714 s | Cc1ccc(NC(=O)Cn2c(C(C)C)nc3c(c2=O)CCN(Cc2ccccc2)C3)cc1 |
| 931 s | Cc1ccc(N2CCC(NC(=O)Nc3cc(C)cc(C)c3)C2=O)cc1 (configuration not stated) |
| 1280 s | Cc1c2c(nn1-c1ccc(SCc3ccc(F)cc3)nn1)CCC2 |
| 629 s | CCCn1cnc2cc(-c3noc(C(C)NC(=O)c4ccco4)n3)ccc21 (configuration not stated) |
| 697 s | CCOc1ccccc1NC(=O)C(=O)NCc1cc(C)oc1C |
| 937 s | CCOc1ccccc1NC(=O)N1C[C@H](c2nc(-c3cccnc3)no2)[C@@H](C)C1 |
| 601 s | COc1ccc(NC(=O)c2cn3c(n2)CCCC3)cc1F |
| 758 s | CC1CCCN(C(=O)C2CC(=O)N(c3ccc4c(c3)CCN4C(=O)C3CC3)C2)C1 (configuration not stated) |
| 964 s | Cc1ccc(NS(=O)(=O)c2ccc(-c3c(C)noc3C)cc2)cc1F |
| 1170 s | CCOc1ccc(-c2noc(Cn3c(=O)n(C(C)CC)c(=O)c4ccccc43)n2)cc1 (configuration not stated) |
| 877 s | COc1cc(OC)cc(-c2nc(C3CC(=O)N(c4ccc(OC)c(OC)c4)C3)no2)c1 (configuration not stated) |
| 988 s | CCc1ccc(N2CC(c3nc(-c4ccc(OC)cc4)no3)CC2=O)cc1 (configuration not stated) |
| 1160 s | COc1ccccc1-c1csc(-c2nnn(-c3ccc(C)cc3)c2N)n1 |
| 660 s | O=C(NC1CCN(c2cc(-c3ccccc3)[nH]n2)C1)c1ccsc1 (configuration not stated) |
| 795 s | CCOc1ccc2nc(Nc3ncc4c(n3)CC(c3cccs3)CC4=O)nc(C)c2c1 (configuration not stated) |
| 674 s | C#Cc1cccc(Nc2ncnc3cc4c(cc23)OCCOCCOCCO4)c1 |
| 860 s | CCC(C)(C)NC(=O)Cn1nc(C)c2nn(-c3ccccc3)c(C)c2c1=O |
| 1190 s | Cc1ccc(CNS(=O)(=O)c2cc(-c3nc(C(C)(C)C)cs3)cs2)o1 |
| 1020 s | COc1cccc(N2CCN(Cc3nc(-c4ccc(N5CCC(C)CC5)nc4)no3)CC2)c1 |
| 814 s | COc1ccccc1Cc1noc(C2CN(C(=O)c3ccc4nsnc4c3)C2)n1 |
| 632 s | COc1cccc(CNC(=O)c2cn3ccc(C)cc3n2)c1OC |

| RP-LC retention time | SMILES |
| --- | --- |
| 915 s | COc1ccc(CN2C(=O)CN(C3CCCCC3)C(=O)C2c2cccs2)cc1 (configuration not stated) |
| 696 s | Cc1ccc(C)c(NC(=O)Nc2cccc(-c3cn4cccnc4n3)c2)c1 |
| 656 s | O=C(NCC(F)(F)F)C1CCN(C(=O)NCc2ccccc2)CC1 |
| 1140 s | Cc1csc(-c2cc(S(=O)(=O)NCCC3=CCCCC3)cn2CC(=O)N2CCCCC2)n1 |
| 765 s | CCc1ccc(CNC(=O)Cn2cnc3nc4c(cc3c2=O)CCCC4)cc1 |
| 878 s | COc1ccc2nc(C(=O)NC3CCCCCC3)cn2n1 |
| 693 s | CS(=O)(=O)N1CCCC1C(=O)Nc1ccc(F)cc1 (configuration not stated) |
| 944 s | O=C(Cn1cccc1-c1nnc(C2CC2)o1)N1CCN(c2cccc(Cl)c2)CC1 |
| 950 s | O=C(Cn1cnc2c(sc3nc(-c4ccccc4)ccc32)c1=O)NCc1ccc2c(c1)OCO2 |
| 924 s | COc1ccc(-c2noc(C3CCCN3C(=O)c3cccs3)n2)cc1 (configuration not stated) |
| 917 s | CN(Cc1ccco1)C(=O)c1ccc2ccnc(N3CCN(c4ccc(Cl)cc4)CC3)c2c1 |
| 1310 s | Cc1cccc(-c2noc(C3CCCN3S(=O)(=O)c3cccc(Cl)c3C)n2)c1 (configuration not stated) |
| 734 s | O=C(NC1CCCc2ccccc21)C1CCCN(c2ccnc(-c3ccc(F)cc3)n2)C1 (configuration not stated) |
| 618 s | CCOc1ccc(N2CC(c3nc4ccccc4n3CCN3CCOCC3)CC2=O)cc1 (configuration not stated) |
| 1170 s | CCOC(=O)c1noc2nc(C)nc(NCCc3ccc(OCC)cc3)c12 |
| 650 s | Cc1cc(OCC(=O)NCc2ccco2)nc(N2CCC(C)CC2)n1 |
| 949 s | Cc1ccc(-c2nnc(N3CCC(C(=O)NC4CCCCCC4)CC3)o2)cc1 |
| 960 s | CN1CCCN(C(=O)COc2ccc(Cl)cc2)c2ccccc21 |
| 680 s | CCn1nccc1-c1nc(C2CC(=O)N(c3ccc(C)cc3)C2)no1 (configuration not stated) |
| 996 s | CC(=O)c1cccc(NC(=O)c2csc3c2CCCC3)c1 |

| SMILES | RP-LC retention time |
| --- | --- |
| CCC1CN1P(=O)(Oc1ccc(Cl)cc1)N1CC1CC (configuration not stated) | 980 s |
| Cc1cc(OCC(=O)N[C@@H](C)C(=O)O)c2c3c(c(=O)oc2c1)CCCC3 | 746 s |
| O=C(Nc1ccc(-n2cnc(C(=O)N3CCC4(CC3)OCCO4)c2)nc1)C1CC1 | 631 s |
